From PubChem BioAssay (NCI)
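All cell lines were grown in 96-well plates and treated with compound for 48 hours. TGI: concentration producing complete growth inhibition.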

Tests used:
Test in all cases: NCI anticancer screen, dose series, 48 h
786-0 renal = system: 786-0 renal
A498 renal = system: A498 renal
A549 NSCLC = system: A549 NSCLC
ACHN renal = system: ACHN renal
BT-549 breast = system: BT-549 breast
CAKI-1 renal = system: CAKI-1 renal
CCRF-CEM leukemia = system: CCRF-CEM leukemia
COLO 205 colon = system: COLO 205 colon
DU-145 prostate = system: DU-145 prostate
EKVX NSCLC = system: EKVX NSCLC
HCC-2998 colon = system: HCC-2998 colon
HCT-116 colon = system: HCT-116 colon
HCT-15 colon = system: HCT-15 colon
HL-60(TB) leukemia = system: HL-60(TB) leukemia
HOP-62 NSCLC = system: HOP-62 NSCLC
HOP-92 NSCLC = system: HOP-92 NSCLC
HS 578T breast = system: HS 578T breast
HT29 colon = system: HT29 colon
IGROV1 ovarian = system: IGROV1 ovarian
K-562 leukemia = system: K-562 leukemia
KM12 colon = system: KM12 colon
LOX IMVI melanoma = system: LOX IMVI melanoma
M14 melanoma = system: M14 melanoma
MALME-3M melanoma = system: MALME-3M melanoma
MCF7 breast = system: MCF7 breast
MDA-MB-231 breast = system: MDA-MB-231 breast
MDA-MB-435 = system: MDA-MB-435
MDA-N = system: MDA-N
MOLT-4 leukemia = system: MOLT-4 leukemia
NCI-H226 lung = system: NCI-H226 lung
NCI-H23 lung = system: NCI-H23 lung
NCI-H460 lung = system: NCI-H460 lung
NCI-H522 lung = system: NCI-H522 lung
NCI/ADR-RES ovarian = system: NCI/ADR-RES ovarian
OVCAR-3 ovarian = system: OVCAR-3 ovarian
OVCAR-4 ovarian = system: OVCAR-4 ovarian
OVCAR-5 ovarian = system: OVCAR-5 ovarian
OVCAR-8 ovarian = system: OVCAR-8 ovarian
PC-3 prostate = system: PC-3 prostate
RPMI-8226 leukemia = system: RPMI-8226 leukemia
RXF 393 renal = system: RXF 393 renal
SF-268 CNS = system: SF-268 CNS
SF-295 CNS = system: SF-295 CNS
SF-539 CNS = system: SF-539 CNS
SK-MEL-2 melanoma = system: SK-MEL-2 melanoma
SK-MEL-28 melanoma = system: SK-MEL-28 melanoma
SK-MEL-5 melanoma = system: SK-MEL-5 melanoma
SK-OV-3 ovarian = system: SK-OV-3 ovarian
SN12C renal = system: SN12C renal
SNB-19 CNS = system: SNB-19 CNS
SNB-75 CNS = system: SNB-75 CNS
SR leukemia = system: SR leukemia
SW-620 colon = system: SW-620 colon
T-47D breast = system: T-47D breast
TK-10 renal = system: TK-10 renal
U251 CNS = system: U251 CNS
UACC-257 melanoma = system: UACC-257 melanoma
UACC-62 melanoma = system: UACC-62 melanoma
DLD-1 colon = system: DLD-1 colon
DMS 114 small cell lung = system: DMS 114 small cell lung
DMS 273 small cell lung = system: DMS 273 small cell lung
HOP-18 NSCLC = system: HOP-18 NSCLC
KM20L2 colon = system: KM20L2 colon
LXFL 529 NSCLC = system: LXFL 529 NSCLC
M19-MEL melanoma = system: M19-MEL melanoma
SNB-78 CNS = system: SNB-78 CNS
UO-31 renal = system: UO-31 renal

Measured: TGI

COc1cc2oc(-c3ccc(O)cc3)c(OC3OC(C)C(O)C(O)C3O)c(=O)c2c(O)c1OC (stereo not given)
> 100 µM: 786-0 renal | A498 renal | A549 NSCLC | ACHN renal | BT-549 breast | CAKI-1 renal | CCRF-CEM leukemia | COLO 205 colon | DU-145 prostate | EKVX NSCLC | HCC-2998 colon | HCT-116 colon | HCT-15 colon | HL-60(TB) leukemia | HOP-62 NSCLC | HOP-92 NSCLC | HS 578T breast | HT29 colon | IGROV1 ovarian | K-562 leukemia | KM12 colon | LOX IMVI melanoma | M14 melanoma | MALME-3M melanoma | MCF7 breast | MDA-MB-231 breast | MDA-MB-435 | MDA-N | MOLT-4 leukemia | NCI-H226 lung | NCI-H23 lung | NCI-H460 lung | NCI-H522 lung | NCI/ADR-RES ovarian | OVCAR-3 ovarian | OVCAR-4 ovarian | OVCAR-5 ovarian | OVCAR-8 ovarian | PC-3 prostate | RPMI-8226 leukemia | RXF 393 renal | SF-268 CNS | SF-295 CNS | SF-539 CNS | SK-MEL-2 melanoma | SK-MEL-28 melanoma | SK-MEL-5 melanoma | SK-OV-3 ovarian | SN12C renal | SNB-19 CNS | SNB-75 CNS | SR leukemia | SW-620 colon | T-47D breast | TK-10 renal | U251 CNS | UACC-257 melanoma | UACC-62 melanoma

Cc1ccc(-c2c(N)nc(NC#N)nc2CCC(=O)Nc2ccccc2[N+](=O)[O-])cc1
> 100 µM: 786-0 renal | A498 renal | A549 NSCLC | ACHN renal | CAKI-1 renal | CCRF-CEM leukemia | COLO 205 colon | DLD-1 colon | DMS 114 small cell lung | DMS 273 small cell lung | EKVX NSCLC | HCC-2998 colon | HCT-116 colon | HCT-15 colon | HL-60(TB) leukemia | HOP-18 NSCLC | HOP-62 NSCLC | HOP-92 NSCLC | HT29 colon | IGROV1 ovarian | K-562 leukemia | KM12 colon | KM20L2 colon | LOX IMVI melanoma | LXFL 529 NSCLC | M14 melanoma | M19-MEL melanoma | MALME-3M melanoma | MOLT-4 leukemia | NCI-H226 lung | NCI-H23 lung | NCI-H460 lung | NCI-H522 lung | OVCAR-3 ovarian | OVCAR-4 ovarian | OVCAR-5 ovarian | RPMI-8226 leukemia | RXF 393 renal | SF-268 CNS | SF-295 CNS | SF-539 CNS | SK-MEL-2 melanoma | SK-MEL-28 melanoma | SK-MEL-5 melanoma | SK-OV-3 ovarian | SN12C renal | SNB-19 CNS | SNB-75 CNS | SNB-78 CNS | SR leukemia | SW-620 colon | TK-10 renal | U251 CNS | UACC-257 melanoma | UACC-62 melanoma | UO-31 renal

c1sc(NC2=NCCO2)c2c1CCCC2
> 100 µM: 786-0 renal | A498 renal | A549 NSCLC | ACHN renal | BT-549 breast | CAKI-1 renal | CCRF-CEM leukemia | COLO 205 colon | DU-145 prostate | EKVX NSCLC | HCC-2998 colon | HCT-116 colon | HCT-15 colon | HL-60(TB) leukemia | HOP-92 NSCLC | HS 578T breast | HT29 colon | IGROV1 ovarian | K-562 leukemia | KM12 colon | LOX IMVI melanoma | M14 melanoma | MALME-3M melanoma | MCF7 breast | MDA-MB-231 breast | MDA-MB-435 | MDA-N | MOLT-4 leukemia | NCI-H226 lung | NCI-H23 lung | NCI-H460 lung | NCI-H522 lung | NCI/ADR-RES ovarian | OVCAR-3 ovarian | OVCAR-4 ovarian | OVCAR-5 ovarian | OVCAR-8 ovarian | PC-3 prostate | RPMI-8226 leukemia | RXF 393 renal | SF-295 CNS | SF-539 CNS | SK-MEL-2 melanoma | SK-MEL-28 melanoma | SK-MEL-5 melanoma | SK-OV-3 ovarian | SNB-19 CNS | SNB-75 CNS | SR leukemia | SW-620 colon | T-47D breast | TK-10 renal | U251 CNS | UACC-257 melanoma | UACC-62 melanoma | UO-31 renal
